How the values were obtained:
[1] = tested on: THP-1 monocytes; test: Growth inhibition of THP-1 monocytes; format: cell-based, human
Experimental: (§1) Cell Culture: Tocopherol and the TP/T2P mixture were each dissolved in ethanol, and the concentrations of the stock solutions were confirmed spectrophotometrically. Monocytes (THP-1) were grown in RPMI/10% FCS.
Growth inhibition by TP/T2P mixture of THP-1 Monocytes: Monocyte proliferation is an important event in the onset and progression of atherosclerosis.

[2] = tested on: Rat Aortic Smooth Muscle Cells (RASMC); test: Smooth muscle cell proliferation - cell counts (Example 1); format: cell-based; details: for Inhibition of cellular proliferation (in words): cell counts after 72 h, tested 0.25-100 μM
From the text: The Rat Aortic Smooth Muscle Cells (RASMC) used in proliferative studies are derived from the tunica intima and tunica media of healthy, fibrous plaque-free adult rat aorta. This cell line is an accepted model for the study of atherosclerosis, since increased arterial smooth muscle mass are found in the intima lesion of atherosclerosis. RASMC are cryopreserved at second passage and can be propagated at least 16 population doublings. RASMC respond to various factors by cell proliferation and hypertrophy, which are prominent indicators of atherosclerosis in vascular disease. RASMC are well suited for the study of large vessel smooth muscle cell growth and differentiation and serve as an in vitro model in correlation with live rat models.
Rat Aortic Smooth Muscle Cells (RASMC) were seeded in growth medium (basal medium+10% FBS) into 6 well plates (50,000 cells/well). After 24 h, cells were washed twice with Hanks Buffered Salt Solution and serum depleted media (basal medium+0.2% FBS) was added to each well. Cells were serum starved for 48 h. Treatments were then prepared in growth medium and added to each well (3 ml/well). Each treatment was conducted in triplicate. The effect of tocopherol and tocopherol phosphate on smooth muscle cell proliferation was tested at eight concentrations: 0.25, 0.5, 1, 5, 10, 20, 50 and 100 μM. Control treatments included: growth medium and growth medium+vehicle (EtOH, 1/1000). After a 72 h incubation period at 37° C., 5% CO2, cells were counted.
Cell proliferation was assessed and quantified by cell counting. Cells were counted after 48 h starvation in basal medium supplemented with 0.2% serum before the addition of test compounds. The average cell count of triplicate wells was ˜60,000. This number exceeds the number of cells seeded prior to starvation (50,000). Therefore the cells were determined to be viable and treatments were added to each well as described previously.

[3] = tested on: THP-1 monocytes; test: Uptake of oxLDL-DiO by FACS; format: cell-based, human
Experimental: Labeling oxLDL. OxLDLs (90% to 100% oxidation) were purchased from Intracell Corp. Small amounts of LDL were oxidized with CuSO4 ([…]) at 37° C. for 18 to 22 hours. LDL oxidation was confirmed by the formation of a characteristic smear band on an agarose gel. Labeling of oxLDL was done basically as previously described. OxLDLs were incubated at 37° C. with DiO (Molecular Probes) in lipoprotein-deficient serum (Sigma) for 15 hours. The labeled oxLDLs (oxLDL-DiO) were purified by ultracentrifugation over a KBr gradient and dialyzed against several changes of saline-EDTA ([…] NaCl-0.01% EDTA) for 6 hours.
Uptake of oxLDL: Uptake of oxLDL was studied with fluorescence-activated cell sorting (FACS). For FACS, the cells were pretreated for 16 hours with 50 μM tocopherol, tocopheryl phosphates, or ethanol solvent (control) and then incubated with oxLDL-DiO (5 μg/mL medium) for 6 hours. For competition experiments, the cells were incubated with monoclonal anti-CD36 antibody (60 μg/5 mL DMEM) (Ancell), with an unspecific isotype-matched antibody (mouse IgM, Ancell), or with unlabeled oxLDL (100 μg/5 mL DMEM) (Intracell Corp). Thereafter, the cells were washed 3 times with PBS and twice with PBS-3 mg/mL BSA and then were detached with trypsin (0.25% trypsin, 0.03% EDTA). […] Data were calculated by subtracting the cell autofluorescence from the fluorescence of the treated samples.

[4] = tested on: CD36 scavenger receptor; test: Surface expression of CD36 scavenger receptor, FACS with antiCD36-FITC; format: cell-based, human; details: THP-1 monocytes, control cells treated with tocopherol
Experimental: as §1
FIG. 6 represents the change in cell numbers over time as indicated by the number of cells which have taken up the fluorescent antibody.

[5] = tested on: Rat Aortic Smooth Muscle Cells (RASMC); test: MTS proliferation assay (Example 2, Study 2); format: cell-based; details: 100 μM, vs vehicle control
Experimental: The MTS proliferation assay was conducted to further support and compliment the adhered cell counts assay. The MTS assay is a well established method for the assessment of cellular proliferation which takes into account the viable cells that are adhered to the plate (as in adhered cell counts) and those that may become detached and float in the media during the course of the experiment (which would be missed in adhered cell counts).

[6] = tested on: Rat Aortic Smooth Muscle Cells (RASMC); test: Counting adhered cells (Example 2, Study 1); format: cell-based; details: adhered cell counts, 0-100 μM, vs vehicle control
Experimental: This example assesses the anti-proliferative activity of α-tocopheryl phosphate (TP), di-tocopheryl phosphate (T2P), the TP/T2P mixture and α-tocopherol using two types of cell counting assays: adhered cell counts and MTS assay.
In this study cells remaining on the bottom of the plate were counted and anti-proliferative activity was assessed based on the number of viable cells that remained adhered to the plate.

Compound | Inhibition of monocyte proliferation (in words) ([1]; THP-1, TP/T2P at 30 μM (TP1) and 60 μM (TP2), especially after 48 h, relative to ethanol control) | Inhibition of proliferation of human monocyte cells ([1]; THP-1 monocytes) | Optimum inhibition of proliferation (plateau) ([2]; 72 h, higher doses) | Inhibition of cellular proliferation (in words) ([2]; listed as Tocopherol) | Inhibition of cellular proliferation (in words) ([2]; listed as α-tocopherol) | Concentration giving the same inhibition of oxLDL uptake (as 50 μM tocopherol, 33% reduction) [3] | Reduction of OxLDL-DiO uptake signal (median of the peak) ([3]; 50 μM, 16 h pretreatment, 6 h oxLDL-DiO) | CD36 expression (in words) [4] | Inhibition of smooth muscle cell proliferation [5] | Maximum inhibition of smooth muscle cell proliferation [6]
Cc1c(C)c2c(c(C)c1O)CC[C@@](C)(CCC[C@H](C)CCC[C@H](C)CCCC(C)C)O2 [tocopherol, α-tocopherol] | not able to inhibit | no inhibition | around 60% | inhibited only to some degree | partially inhibited | 50 µM | 33% | expressed large amounts of CD36 receptors | – | –
α-tocopheryl phosphate [TP] | – | – | – | – | – | – | – | – | up to 85% | did not inhibit

Reference: US20110003774A1, “COMPOUNDS HAVING ANTI-PROLIFERATIVE PROPERTIES” (VITAL HEALTH SCIENCES PTY. LTD., priority 2003, published 2011)
